Biological target: T1, human OX2R (Homo sapiens, UniProt O43614)
T1 construct: expressed in transfected cells; host or cells: CHO (Chinese hamster ovary) cells grown under G418 selection
T1 sequence (O43614 1-444): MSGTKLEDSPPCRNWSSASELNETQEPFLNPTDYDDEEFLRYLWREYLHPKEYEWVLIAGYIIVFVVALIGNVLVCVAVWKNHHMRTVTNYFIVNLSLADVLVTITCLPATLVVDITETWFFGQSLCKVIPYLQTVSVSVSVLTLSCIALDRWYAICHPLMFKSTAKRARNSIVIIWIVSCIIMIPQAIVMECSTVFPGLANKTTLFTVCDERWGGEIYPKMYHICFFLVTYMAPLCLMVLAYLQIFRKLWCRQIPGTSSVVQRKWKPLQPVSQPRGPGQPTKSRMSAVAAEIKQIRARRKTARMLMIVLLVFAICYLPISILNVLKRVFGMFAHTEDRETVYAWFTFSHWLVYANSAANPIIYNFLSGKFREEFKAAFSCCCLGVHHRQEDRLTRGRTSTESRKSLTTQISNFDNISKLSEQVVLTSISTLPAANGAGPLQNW
Experiment: IPOne (IP-1 accumulation) assay in CHO cells expressing human OX2R
Assay type: cell-based
Conditions: for EC50: CHO cells expressing human OX2R, IP-One assay, 2 h incubation, four parameter logistic fit, read-out: OX2R Potency, EC50; for % of maximum agonist effect (relative to Orexin A): percent effect vs mean max effect of a reference compound at 1 uM (100% activity vs Orexin A), human OX2R
Summary of the method: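 Agonist EC50 values come from the inflection point of four-parameter logistic curves. Read-out is IP-1 accumulation detected with lysis buffer plus D2 and AB-cryptate reagents (HTRF), in CHO cells engineered to express human OX2R.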

| SMILES | EC50 | % of maximum agonist effect (relative to Orexin A) |
| --- | --- | --- |
| CCC(NC(=O)N(CC)[C@@H](c1cc(-c2cn3cc(C)nc3c(OC)n2)c(OC)cn1)C(F)(F)F)C1CC1C(F)(F)F (stereo partly drawn) [Example 6-6, 1-ethyl-1-((S)-2,2,2-trifluoro-1-(5-methoxy-4-(8-methoxy-2-methylimidazo[1,2-a]pyrazin-6-yl)pyridin-2-yl)ethyl)-3-(1-(2-(trifluoromethyl)cyclopropyl)propyl)urea] | 71.4 nM | 101.5% |
| CCN(C(=O)N[C@@H](CCC(F)F)C1CC1)[C@@H](c1cc(-c2cn3cc(C)nc3c(OC)n2)c(OC)cn1)C(F)(F)F [Example 6-7, 3-((S)-1-cyclopropyl-4,4-difluorobutyl)-1-ethyl-1-((S)-2,2,2-trifluoro-1-(5-methoxy-4-(8-methoxy-2-methylimidazo[1,2-a]pyrazin-6-yl)pyridin-2-yl)ethyl)urea] | 8.5 nM | 100.9% |
| CC[C@H](CCC(F)(F)F)NC(=O)N(CC)[C@H](C)c1cccc(-c2cc(OC(F)F)c3nccn3c2)c1 [Example 7-1, 1-((R)-1-(3-(8-(difluoromethoxy)imidazo[1,2-a]pyridin-6-yl)phenyl)ethyl)-1-ethyl-3-((R)-6,6,6-trifluorohexan-3-yl)urea] | 29.3 nM | 96.8% |
| CCC(CCC(F)(F)F)NC(=O)N(CC)[C@H](C)c1cccc(-c2cn3ccnc3cc2OC)c1 (stereo partly drawn) [Example 7-2, 1-ethyl-1-((R)-1-(3-(7-methoxyimidazo[1,2-a]pyridin-6-yl)phenyl)ethyl)-3-(6,6,6-trifluorohexan-3-yl)urea] | 396 nM | 100.4% |
| CC[C@H](CCC(F)(F)F)NC(=O)N(CC)[C@H](C)c1cccc(-c2cc(C(F)F)c3nccn3c2)c1 [Example 7-3, 1-((R)-1-(3-(8-(difluoromethyl)imidazo[1,2-a]pyridin-6-yl)phenyl)ethyl)-1-ethyl-3-((R)-6,6,6-trifluorohexan-3-yl)urea] | 491 nM | 86.1% |
| CC[C@H](CCC(F)(F)F)NC(=O)N(CC)[C@H](C)c1cccc(-c2cc(COC)c3nccn3c2)c1 [Example 7-4, 1-ethyl-1-((R)-1-(3-(8-(methoxymethyl)imidazo[1,2-a]pyridin-6-yl)phenyl)ethyl)-3-((R)-6,6,6-trifluorohexan-3-yl)urea] | 595 nM | 97.8% |
| CC[C@H](CCC(F)(F)F)NC(=O)N(CC)[C@H](C)c1cccc(-c2cc(Cl)n3nccc3c2)c1 [Example 7-5, 1-((R)-1-(3-(7-chloropyrazolo[1,5-a]pyridin-5-yl)phenyl)ethyl)-1-ethyl-3-((R)-6,6,6-trifluorohexan-3-yl)urea] | 851 nM | 93.7% |
| CCC(CCC(F)(F)F)NC(=O)N(CC)[C@H](C)c1cccc(-c2cn3ccnc3cc2COC)c1 (stereo partly drawn) [Example 7-6, 1-ethyl-1-((R)-1-(3-(7-(methoxymethyl)imidazo[1,2-a]pyridin-6-yl)phenyl)ethyl)-3-(6,6,6-trifluorohexan-3-yl)urea] | 1410 nM | 100.8% |

Second part, the compound after the results:

| EC50 | % of maximum agonist effect (relative to Orexin A) | SMILES |
| --- | --- | --- |
| 211 nM | 96.1% | CC[C@H](CCC(F)(F)F)NC(=O)N(CC)[C@H](C)c1cccc(-c2cn3ccnc3c(SC)n2)c1 [Example 8-1, 1-ethyl-1-((R)-1-(3-(8-(methylthio)imidazo[1,2-a]pyrazin-6-yl)phenyl)ethyl)-3-((R)-6,6,6-trifluorohexan-3-yl)urea] |
| 6.5 nM | 97.7% | CCOc1cc(-c2cccc([C@@H](C)N(CC)C(=O)N[C@H](CC)CCC(F)(F)F)c2)cn2ccnc12 [Example 8-2, 1-((R)-1-(3-(8-ethoxyimidazo[1,2-a]pyridin-6-yl)phenyl)ethyl)-1-ethyl-3-((R)-6,6,6-trifluorohexan-3-yl)urea] |
| 10.4 nM | 96.6% | CC[C@H](CCC(F)(F)F)NC(=O)N(CC)[C@H](C)c1ccc(OC)c(-c2cc(C)c3nccn3c2)c1 [Example 8-3, 1-ethyl-1-((R)-1-(4-methoxy-3-(8-methylimidazo[1,2-a]pyridin-6-yl)phenyl)ethyl)-3-((R)-6,6,6-trifluorohexan-3-yl)urea] |
| 25.9 nM | 98.7% | CC[C@H](CCC(F)(F)F)NC(=O)N(CC)[C@H](C)c1ccc(OC)c(-c2cc(N)c3nccn3c2)c1 [Example 8-4, 1-((R)-1-(3-(8-aminoimidazo[1,2-a]pyridin-6-yl)-4-methoxyphenyl)ethyl)-1-ethyl-3-((R)-6,6,6-trifluorohexan-3-yl)urea] |
| 47.8 nM | 96.1% | CC[C@H](CCC(F)(F)F)NC(=O)N(CC)[C@H](C)c1ccc(OC)c(-c2cnc3[nH]ccc3c2)c1 [Example 8-5, 1-ethyl-1-((R)-1-(4-methoxy-3-(1H-pyrrolo[2,3-b]pyridin-5-yl)phenyl)ethyl)-3-((R)-6,6,6-trifluorohexan-3-yl)urea] |
| 180 nM | 99.3% | CCC(CCC(F)(F)F)NC(=O)N(CC)[C@H](C)c1cccc(-c2cnc3nccn3c2)c1 (stereo partly drawn) [Example 8-7, 1-ethyl-1-((R)-1-(3-(imidazo[1,2-a]pyrimidin-6-yl)phenyl)ethyl)-3-(6,6,6-trifluorohexan-3-yl)urea] |
| 248 nM | 102.1% | CCC(CCC(F)(F)F)NC(=O)N(CC)[C@H](C)c1cccc(-c2cn3ccnc3cc2C)c1 (stereo partly drawn) [Example 8-8, 1-ethyl-1-((R)-1-(3-(7-methylimidazo[1,2-a]pyridin-6-yl)phenyl)ethyl)-3-(6,6,6-trifluorohexan-3-yl)urea] |
| 0.7 nM | 99.7% | CCN(C(=O)N[C@@H](CCC(F)(F)F)C(F)(F)F)[C@H](C)c1cccc(-c2cc(OC)c3ncc(Cl)n3c2)c1 [Example 8-9, 1-((R)-1-(3-(3-chloro-8-methoxyimidazo[1,2-a]pyridin-6-yl)phenyl)ethyl)-1-ethyl-3-((S)-1,1,1,5,5,5-hexafluoropentan-2-yl)urea] |
| 1.5 nM | 99.6% | CCN(C(=O)N[C@@H](CCC(F)(F)F)C(F)(F)F)[C@H](C)c1cccc(-c2cc(OC)c3nc(Cl)cn3c2)c1 [Example 8-10, 1-((R)-1-(3-(2-chloro-8-methoxyimidazo[1,2-a]pyridin-6-yl)phenyl)ethyl)-1-ethyl-3-((S)-1,1,1,5,5,5-hexafluoropentan-2-yl)urea] |
| 2 nM | 95.4% | CCN(C(=O)N[C@@H](CCC(F)(F)F)C(F)(F)F)[C@H](C)c1cccc(-c2cc(OC)c3ncnn3c2)c1 [Example 8-11, 1-ethyl-3-((S)-1,1,1,5,5,5-hexafluoropentan-2-yl)-1-((R)-1-(3-(8-methoxy-[1,2,4]triazolo[1,5-a]pyridin-6-yl)phenyl)ethyl)urea] |
| 17.4 nM | 96.7% | CCN(C(=O)N[C@@H](CCC(F)(F)F)C(F)(F)F)[C@H](C)c1cccc(-c2ccc3ncc(N)n3c2)c1 [Example 8-12, 1-((R)-1-(3-(3-aminoimidazo[1,2-a]pyridin-6-yl)phenyl)ethyl)-1-ethyl-3-((S)-1,1,1,5,5,5-hexafluoropentan-2-yl)urea] |
| 109 nM | 100.1% | CCN(C(=O)N[C@@H](CCC(F)(F)F)C(F)(F)F)[C@H](C)c1cccc(-c2cc(OC)c3ncc(Cl)n3c2Cl)c1 [Example 8-14, 1-((R)-1-(3-(3,5-dichloro-8-methoxyimidazo[1,2-a]pyridin-6-yl)phenyl)ethyl)-1-ethyl-3-((S)-1,1,1,5,5,5-hexafluoropentan-2-yl)urea] |
| 188 nM | 94.1% | CC[C@H](CCC(F)(F)F)NC(=O)N(CC)[C@H](C)c1cccc(-c2cn3ccnc3cc2Cl)c1 [Example 8-15, 1-((R)-1-(3-(7-chloroimidazo[1,2-a]pyridin-6-yl)phenyl)ethyl)-1-ethyl-3-((R)-6,6,6-trifluorohexan-3-yl)urea] |
| 0.9 nM | 99.7% | CCN(C(=O)N[C@@H](CCC(F)(F)F)C(F)(F)F)[C@@H](c1cc(-c2cc(OC)c3nccn3c2)c(OC)cn1)C(F)(F)F [Example 9-1, 1-ethyl-3-((S)-1,1,1,5,5,5-hexafluoropentan-2-yl)-1-((S)-2,2,2-trifluoro-1-(5-methoxy-4-(8-methoxyimidazo[1,2-a]pyridin-6-yl)pyridin-2-yl)ethyl)urea] |
| 5.5 nM | 100.5% | CCc1nc(-c2cc([C@H](N(CC)C(=O)N[C@@H](CCC(F)(F)F)C(F)(F)F)C(F)(F)F)ncc2OC)cn2ccnc12 [Example 9-2, 1-ethyl-1-((S)-1-(4-(8-ethylimidazo[1,2-a]pyrazin-6-yl)-5-methoxypyridin-2-yl)-2,2,2-trifluoroethyl)-3-((S)-1,1,1,5,5,5-hexafluoropentan-2-yl)urea] |

Reference: patent US12692262B2, “Substituted ureas as orexin receptor agonists” (Merck Sharp & Dohme LLC, priority 2020, dated 2026)
